Assay results as given in patent US10717749B2, “Macrocyclic sulfondiimine compounds” (BAYER PHARMA AKTIENGESELLSCHAFT, priority 2015, dated 2020).
pIC50: −log10 of the molar value.

Key:
[1] = molecular target: T1, CDK9/CycT1 (Homo sapiens, UniProt P50750); assay: CDK9/CycT1 kinase assay (Method 1a, TR-FRET, 10 μM ATP); assay type: biochemical; details: for pIC50: Method 1a, 10 μM ATP; for Selectivity CDK9 over CDK2: IC50 (CDK2)/IC50 (CDK9): Methods 1a and 2a, minimal values
T1 construct: Recombinant full-length His-tagged human CDK9 and CycT1; His; purchased Invitrogen PV4131; host or cells: insect cells
T1 sequence (P50750 whole entry): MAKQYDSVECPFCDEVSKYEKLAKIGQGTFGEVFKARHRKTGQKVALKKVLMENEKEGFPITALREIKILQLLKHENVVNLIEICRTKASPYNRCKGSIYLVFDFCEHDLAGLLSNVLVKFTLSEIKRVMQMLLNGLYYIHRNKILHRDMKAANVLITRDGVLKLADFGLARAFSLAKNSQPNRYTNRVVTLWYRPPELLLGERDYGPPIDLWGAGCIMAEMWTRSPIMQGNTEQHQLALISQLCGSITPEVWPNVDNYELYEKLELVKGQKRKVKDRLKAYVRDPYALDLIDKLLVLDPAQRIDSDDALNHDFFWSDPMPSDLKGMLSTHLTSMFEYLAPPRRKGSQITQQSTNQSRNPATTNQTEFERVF
T1 sequence (O60563 whole entry partner): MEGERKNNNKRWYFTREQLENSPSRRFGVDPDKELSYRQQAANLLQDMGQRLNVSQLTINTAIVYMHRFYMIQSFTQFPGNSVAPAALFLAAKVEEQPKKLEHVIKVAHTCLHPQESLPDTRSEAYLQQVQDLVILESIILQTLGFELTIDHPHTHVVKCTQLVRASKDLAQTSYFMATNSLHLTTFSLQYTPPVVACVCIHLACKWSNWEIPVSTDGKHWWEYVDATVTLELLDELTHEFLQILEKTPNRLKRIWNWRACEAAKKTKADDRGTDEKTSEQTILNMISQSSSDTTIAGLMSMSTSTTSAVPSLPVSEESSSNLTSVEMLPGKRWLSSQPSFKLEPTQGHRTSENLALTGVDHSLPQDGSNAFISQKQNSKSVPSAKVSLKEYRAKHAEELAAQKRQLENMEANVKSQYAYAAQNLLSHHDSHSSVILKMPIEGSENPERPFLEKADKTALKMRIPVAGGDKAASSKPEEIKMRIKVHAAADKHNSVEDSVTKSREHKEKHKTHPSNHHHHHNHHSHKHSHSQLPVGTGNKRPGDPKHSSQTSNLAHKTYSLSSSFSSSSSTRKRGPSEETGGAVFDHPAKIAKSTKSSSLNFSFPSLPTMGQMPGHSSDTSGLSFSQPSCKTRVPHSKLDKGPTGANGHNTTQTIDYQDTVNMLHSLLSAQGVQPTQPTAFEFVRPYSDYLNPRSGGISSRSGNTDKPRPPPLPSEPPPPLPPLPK
From the text: 1a. CDK9/CycT1 Kinase Assay:
CDK9/CycT1-inhibitory activity of compounds of the present invention was quantified employing the CDK9/CycT1 TR-FRET assay as described in the following paragraphs:
Recombinant full-length His-tagged human CDK9 and CycT1, expressed in insect cells and purified by Ni-NTA affinity chromatography, were purchased from Invitrogen (Cat. No PV4131). As substrate for the kinase reaction biotinylated peptide biotin-Ttds-YISPLKSPYKISEG (C-terminus in amid form) was used which can be purchased e.g. from the company JERINI Peptide Technologies (Berlin, Germany). For the assay 50 nl of a 100 fold concentrated solution of the test compound in DMSO was pipetted into a black low volume 384 well microtiter plate (Greiner Bio-One, Frickenhausen, Germany), 2 μl of a solution of CDK9/CycT1 in aqueous assay buffer [50 mM Tris/HCl pH 8.0, 10 mM MgCl2, 1.0 mM dithiothreitol, 0.1 mM sodium ortho-vanadate, 0.01% (v/v) Nonidet-P40 (Sigma)] were added and the mixture was incubated for 15 min at 22° C. to allow pre-binding of the test compounds to the enzyme before the start of the kinase reaction. Then the kinase reaction was started by the addition of 3 μl of a solution of adenosine-tri-phosphate (ATP, […]=> final conc. in the 5 μl assay volume is 10 μM) and substrate (1.67 μM=> final conc. in the 5 μl assay volume is 1 μM) in assay buffer and the resulting mixture was incubated for a reaction time of 25 min at 22° C. The concentration of CDK9/CycT1 was adjusted depending of the activity of the enzyme lot and was chosen appropriate to have the assay in the linear range, typical concentrations were in the range of 1 μg/mL. The reaction was stopped by the addition of 5 μl of a solution of TR-FRET detection reagents (0.2 μM streptavidine-XL665 [Cisbio Bioassays, Codolet, France] and 1 nM anti-RB(pSer807/pSer811)-antibody from BD Pharmingen [#558389] and 1.2 nM LANCE EU-W1024 labeled anti-mouse IgG antibody [Perkin-Elmer, product no. AD0077]) in an aqueous EDTA-solution (100 mM EDTA, 0.2% (w/v) bovine serum albumin in 100 mM HEPES pH 7.5).
(§1) The resulting mixture was incubated 1 h at 22° C. to allow the formation of complex between the phosphorylated biotinylated peptide and the detection reagents. Subsequently the amount of phosphorylated substrate was evaluated by measurement of the resonance energy transfer from the Eu-chelate to the streptavidine-XL. Therefore, the fluorescence emissions at 620 nm and 665 nm after excitation at 350 nm was measured in a HTRF reader, e.g. a Rubystar (BMG Labtechnologies, Offenburg, Germany) or a Viewlux (Perkin-Elmer). The ratio of the emissions at 665 nm and at […] was taken as the measure for the amount of phosphorylated substrate. The data were normalised (enzyme reaction without inhibitor=0% inhibition, all other assay components but no enzyme=100% inhibition).

[2] = molecular target: T2, CDK2/CycE (Homo sapiens, UniProt P24941); assay: CDK2/CycE kinase assay (Method 2a, TR-FRET, 10 μM ATP); assay type: biochemical
T2 construct: GST; purchased ProQinase GmbH (Freiburg, Germany); host or cells: insect cells (Sf9)
From the text: 2a. CDK2/CycE Kinase Assay:
CDK2/CycE-inhibitory activity of compounds of the present invention was quantified employing the CDK2/CycE TR-FRET assay as described in the following paragraphs:
Recombinant fusion proteins of GST and human CDK2 and of GST and human CycE, expressed in insect cells (Sf9) and purified by Glutathion-Sepharose affinity chromatography, were purchased from ProQinase GmbH (Freiburg, Germany). As substrate for the kinase reaction biotinylated peptide biotin-Ttds-YISPLKSPYKISEG (C-terminus in amid form) was used which can be purchased e.g. from the company JERINI Peptide Technologies (Berlin, Germany).
For the assay 50 nl of a 100 fold concentrated solution of the test compound in DMSO was pipetted into a black low volume 384 well microtiter plate (Greiner Bio-One, Frickenhausen, Germany), 2 μl of a solution of CDK2/CycE in aqueous assay buffer [50 mM Tris/HCl pH 8.0, 10 mM MgCl2, 1.0 mM dithiothreitol, 0.1 mM sodium ortho-vanadate, 0.01% (v/v) Nonidet-P40 (Sigma)] were added and the mixture was incubated for 15 min at 22° C. to allow pre-binding of the test compounds to the enzyme before the start of the kinase reaction. […] The concentration of CDK2/CycE was adjusted depending of the activity of the enzyme lot and was chosen appropriate to have the assay in the linear range, typical concentrations were in the range of 130 ng/mL. The reaction was stopped by the addition of 5 μl of a solution of TR-FRET detection reagents (0.2 μM streptavidine-XL665 [Cisbio Bioassays, Codolet, France] and 1 nM anti-RB(pSer807/pSer811)-antibody from BD Pharmingen [#558389] and 1.2 nM LANCE EU-W1024 labeled anti-mouse IgG antibody [Perkin-Elmer, product no. AD0077]) in an aqueous EDTA-solution (100 mM EDTA, 0.2% (w/v) bovine serum albumin in 100 mM HEPES pH 7.5).
as §1, with “TR-FRET” for “HTRF”

| SMILES | pIC50 [1] | Selectivity CDK9 over CDK2: IC50 (CDK2)/IC50 (CDK9) [1] | pIC50 [2] |
| --- | --- | --- | --- |
| CS(=N)(Cc1cc2cc(c1)OCCCCOc1cc(F)ccc1-c1nc(ncc1F)N2)=NC1CC1 (racemic) [Example 9, (rac)-9-[(N-cyclopropyl-S-methylsulfonodiimidoyl)methyl]-16,20-difluoro-2,3,4,5-tetrahydro-12H-13,17-(azeno)-11,7-(metheno)-1,6,12,14-benzodioxadiazacyclononadecine] | 8.44 | 39.7 | 6.84 |
| CS(=N)(Cc1cc2nc(c1)OCCCOc1cc(F)ccc1-c1cc(ncc1F)N2)=NC#N (racemic) [Example 3, (rac)-[{[15,19-difluoro-3,4-dihydro-2H,11H-10,6-(azeno)-12,16-(metheno)-1,5,11,13-benzodioxadiazacyclooctadecin-8-yl]methyl}(imino)methyl-λ^6-sulfanylidene]cyanamide] | 8.54 | 2.1 | 8.22 |
| CS(=N)(=N)Cc1cc2cc(c1)OCCCCOc1c(F)cccc1-c1nc(ncc1F)N2 [Example 7, 16,21-difluoro-9-[(S-methylsulfonodiimidoyl)methyl]-2,3,4,5-tetrahydro-12H-13,17-(azeno)-11,7-(metheno)-1,6,12,14-benzodioxadiazacyclononadecine] | 8.25 | 209 | 5.93 |
| CS(=N)(=N)Cc1cc2nc(c1C#N)OCCCOc1cc(F)ccc1-c1cc(ncc1F)N2 [Example 8, 15,19-difluoro-8-[(S-methylsulfonodiimidoyl)methyl]-3,4-dihydro-2H,11H-10,6-(azeno)-12,16-(metheno)-1,5,11,13-benzodioxadiazacyclooctadecine-7-carbonitrile] | 8.43 | 19.2 | 7.15 |
| CS(=N)(=N)Cc1cc2nc(c1)OCCCOc1cc(F)ccc1-c1cc(ncc1F)N2 [Example 1, 15,19-difluoro-8-[(S-methylsulfonodiimidoyl)methyl]-3,4-dihydro-2H,11H-10,6-(azeno)-12,16-(metheno)-1,5,11,13-benzodioxadiazacyclooctadecine] | 8.48 | 5.0 | 7.79 |
| CN=S(C)(=N)Cc1cc2nc(c1)OCCCOc1cc(F)ccc1-c1cc(ncc1F)N2 (racemic) [Example 4, (rac)-8-[(N,S-dimethylsulfonodiimidoyl)methyl]-15,19-difluoro-3,4-dihydro-2H,11H-10,6-(azeno)-12,16-(metheno)-1,5,11,13-benzodioxadiazacyclooctadecine] | 8.04 | 4.1 | 7.43 |
| CS(=N)(=N)Cc1cc2cc(c1)OCCCCOc1c(ccc(F)c1F)-c1nc(ncc1F)N2 [Example 6, 16,20,21-trifluoro-9-[(S-methylsulfonodiimidoyl)methyl]-2,3,4,5-tetrahydro-12H-13,17-(azeno)-11,7-(metheno)-1,6,12,14-benzodioxadiazacyclononadecine] | 8.09 | 174 | 5.84 |
| CS(=N)(Cc1cc2nc(c1)OCCCOc1cc(F)ccc1-c1cc(ncc1F)N2)=NCCCO (racemic) [Example 2, (rac)-3-(2-{[15,19-difluoro-3,4-dihydro-2H,11H-10,6-(azeno)-12,16-(metheno)-1,5,11,13-benzodioxadiazacyclooctadecin-8-yl]methyl}-2-methyl-2λ^6-diazathia-1,2-dien-1-yl)propan-1-ol] | 8.54 | 7.8 | 7.65 |
| CS(=N)(=N)Cc1cc2cc(c1)OCCCCOc1cc(F)ccc1-c1nc(ncc1F)N2 [Example 5, 16,20-difluoro-9-[(S-methylsulfonodiimidoyl)methyl]-2,3,4,5-tetrahydro-12H-13,17-(azeno)-11,7-(metheno)-1,6,12,14-benzodioxadiazacyclononadecine] | 8.47 | 27.2 | 7.03 |
